According to publication PMC10105399 (European Journal of Medicinal Chemistry, 2023):

Legend:
alpha-chymotrypsin = format: biochemical, human; conditions: read-out: IC50 Chymo-trypsin
SARS-CoV-2 3CLpro = SARS-CoV-2 3CLpro (Severe acute respiratory syndrome coronavirus 2, UniProt P0DTD1); format: biochemical
MERS-CoV 3CLpro = MERS-CoV 3CLpro (Middle East respiratory syndrome-related coronavirus, UniProt K9N7C7); format: biochemical
Chain of MERS-CoV 3CLpro (K9N7C7 3248-3553 limits assumed): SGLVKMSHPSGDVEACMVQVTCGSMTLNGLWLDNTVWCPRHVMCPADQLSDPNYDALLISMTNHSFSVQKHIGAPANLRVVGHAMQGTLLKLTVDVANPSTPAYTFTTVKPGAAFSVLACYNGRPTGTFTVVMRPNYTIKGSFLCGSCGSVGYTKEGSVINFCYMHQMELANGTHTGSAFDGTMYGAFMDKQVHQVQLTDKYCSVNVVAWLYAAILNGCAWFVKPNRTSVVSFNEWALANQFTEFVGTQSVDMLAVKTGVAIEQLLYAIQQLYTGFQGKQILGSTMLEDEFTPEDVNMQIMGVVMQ

Structure (SMILES): CC(C)C[C@H](NC(=O)OCC(C)(C)Sc1ccccc1)C(=O)N[C@@H](C[C@@H]1CCNC1=O)C(=O)C(=O)NC1CC1 [1e, 2-Methyl-2-(phenylthio)propyl ((S)-1-(((S)-4-(cyclopropylamino)-3,4-dioxo-1-((S)-2-oxopyrrolidin-3-yl)butan-2-yl)amino)-4-methyl-1-oxopentan-2-yl)carbamate]
- IC50 (alpha-chymotrypsin): > 50 µM

Structure (SMILES): CC(C)C[C@H](NC(=O)OCC(C)(C)Oc1ccc(F)cc1)C(=O)N[C@H](C=O)C[C@@H]1CCNC1=O [15c, 2-(4-Fluorophenoxy)-2-methylpropyl ((S)-4-methyl-1-oxo-1-(((S)-1-oxo-3-((S)-2-oxopyrrolidin-3-yl)propan-2-yl)amino)pentan-2-yl)carbamate]
- IC50 (alpha-chymotrypsin): > 50 µM

Structure (SMILES): CC(C)C[C@H](NC(=O)OCC(C)(C)Oc1ccccc1)C(=O)N[C@H](C=O)C[C@@H]1CCNC1=O [10c, 2-Methyl-2-phenoxypropyl ((S)-4-methyl-1-oxo-1-(((S)-1-oxo-3-((S)-2-oxopyrrolidin-3-yl)propan-2-yl)amino)pentan-2-yl)carbamate]
- fold less active than 1c against SARS-CoV-2 3CLpro (SARS-CoV-2 3CLpro): more than 4 fold
- fold more potent than 1c against MERS-CoV 3CLpro (MERS-CoV 3CLpro): 2 fold

Structure (SMILES): CC(C)C[C@H](NC(=O)OCC(C)(C)Sc1ccccc1)C(=O)N[C@H](C=O)C[C@@H]1CCNC1=O [1c, 2-Methyl-2-(phenylthio)propyl ((S)-4-methyl-1-oxo-1-(((S)-1-oxo-3-((S)-2-oxopyrrolidin-3-yl)propan-2-yl)amino)pentan-2-yl)carbamate]
- fold higher potency than 8c against SARS-CoV-2 3CLpro (SARS-CoV-2 3CLpro): 4.6 fold
- fold higher potency than 8c against MERS-CoV 3CLpro (MERS-CoV 3CLpro): ~2 fold
- IC50 (alpha-chymotrypsin): > 50 µM

Structure (SMILES): CC(C)C[C@H](NC(=O)OCC(C)(C)Sc1cccc(Cl)c1)C(=O)N[C@H](C=O)C[C@@H]1CCNC1=O [7c, 2-((3-Chlorophenyl)thio)-2-methylpropyl ((S)-4-methyl-1-oxo-1-(((S)-1-oxo-3-((S)-2-oxopyrrolidin-3-yl)propan-2-yl)amino)pentan-2-yl)carbamate]
- IC50 (alpha-chymotrypsin): > 50 µM

Structure (SMILES): CC(C)C[C@H](NC(=O)OCC(C)(C)Sc1ccccc1)C(=O)N[C@H](C#N)C[C@@H]1CCNC1=O [1g, 2-Methyl-2-(phenylthio)propyl ((S)-1-(((S)-1-cyano-2-((S)-2-oxopyrrolidin-3-yl)ethyl)amino)-4-methyl-1-oxopentan-2-yl)carbamate]
- IC50 (alpha-chymotrypsin): > 50 µM

Structure (SMILES): [2H]C([2H])(OC(=O)N[C@@H](CC(C)C)C(=O)N[C@H](C=O)C[C@@H]1CCNC1=O)C(C)(C)Oc1ccc(Cl)cc1 [12c, 2-(4-Chlorophenoxy)-2-methylpropyl-1,1-d2 ((S)-4-methyl-1-oxo-1-(((S)-1-oxo-3-((S)-2-oxopyrrolidin-3-yl)propan-2-yl)amino)pentan-2-yl)carbamate]
- IC50 (alpha-chymotrypsin): > 50 µM

Structure (SMILES): CC(C)C[C@H](NC(=O)OCC(C)(C)Sc1nc2ccccc2[nH]1)C(=O)N[C@H](C=O)C[C@@H]1CCNC1=O [9c, 2-((1H-benzo[d]imidazole-2-yl)thio)-2-methylpropyl ((S)-4-methyl-1-oxo-1-(((S)-1-oxo-3-((S)-2-oxopyrrolidin-3-yl)propan-2-yl)amino)pentan-2-yl)carbamate]
- fold less active than 1c against SARS-CoV-2 3CLpro (SARS-CoV-2 3CLpro): more than 4 fold
- fold reduction in potency relative to 1c against MERS-CoV 3CLpro (MERS-CoV 3CLpro): 1.5 fold

Structure (SMILES): CC(C)C[C@H](NC(=O)OCC(C)(C)Oc1cccc(Cl)c1)C(=O)N[C@H](C=O)C[C@@H]1CCNC1=O [13c, 2-(3-Chlorophenoxy)-2-methylpropyl ((S)-4-methyl-1-oxo-1-(((S)-1-oxo-3-((S)-2-oxopyrrolidin-3-yl)propan-2-yl)amino)pentan-2-yl)carbamate]
- IC50 (alpha-chymotrypsin): > 50 µM

Structure (SMILES): [2H]C([2H])(OC(=O)N[C@@H](CC(C)C)C(=O)N[C@H](C=O)C[C@@H]1CCNC1=O)C(C)(C)Sc1ccccc1 [2c, 2-Methyl-2-(phenylthio)propyl-1,1-d2 ((S)-4-methyl-1-oxo-1-(((S)-1-oxo-3-((S)-2-oxopyrrolidin-3-yl)propan-2-yl)amino)pentan-2-yl)carbamate]
- IC50 (alpha-chymotrypsin): > 50 µM
